Here are results for nine compounds from patent publication US20220081435A1, “ANDROGEN RECEPTOR PROTEIN DEGRADERS” (THE REGENTS OF THE UNIVERSITY OF MICHIGAN, priority 2019, published 2022).

The target in the experiment is T1, AR protein (Homo sapiens, UniProt P10275, T878A).
T1 construct: The percent AR protein degradation induced by these compounds at various concentrations in LNCaP cells; host or cells: LNCaP
T1 sequence (P10275 1-920 T878A): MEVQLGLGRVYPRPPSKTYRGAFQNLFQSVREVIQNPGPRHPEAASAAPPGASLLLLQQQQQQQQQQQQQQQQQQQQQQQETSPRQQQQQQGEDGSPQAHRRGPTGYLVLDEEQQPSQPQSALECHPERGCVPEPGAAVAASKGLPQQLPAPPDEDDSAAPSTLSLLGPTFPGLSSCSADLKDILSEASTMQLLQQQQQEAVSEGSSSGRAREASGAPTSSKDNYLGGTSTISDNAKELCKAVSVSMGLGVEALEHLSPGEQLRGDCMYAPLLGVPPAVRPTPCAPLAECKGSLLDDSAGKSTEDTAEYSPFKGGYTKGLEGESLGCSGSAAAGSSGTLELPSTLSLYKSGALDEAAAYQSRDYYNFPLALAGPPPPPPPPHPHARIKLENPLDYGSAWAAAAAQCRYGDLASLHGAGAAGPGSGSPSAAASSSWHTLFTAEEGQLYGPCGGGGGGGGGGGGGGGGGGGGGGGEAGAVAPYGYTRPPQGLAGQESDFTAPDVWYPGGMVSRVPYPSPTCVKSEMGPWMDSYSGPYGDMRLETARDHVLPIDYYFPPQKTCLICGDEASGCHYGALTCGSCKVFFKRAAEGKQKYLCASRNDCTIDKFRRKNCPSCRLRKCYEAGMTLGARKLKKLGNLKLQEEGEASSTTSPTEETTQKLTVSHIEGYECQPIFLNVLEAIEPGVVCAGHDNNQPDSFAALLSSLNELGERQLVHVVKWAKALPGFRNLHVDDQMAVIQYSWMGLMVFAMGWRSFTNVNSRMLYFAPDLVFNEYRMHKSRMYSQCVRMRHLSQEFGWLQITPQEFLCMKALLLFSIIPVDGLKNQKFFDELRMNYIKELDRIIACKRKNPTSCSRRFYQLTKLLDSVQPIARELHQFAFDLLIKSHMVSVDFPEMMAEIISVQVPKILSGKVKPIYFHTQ
Put plainly: AR protein degradation in LNCaP cells (Western blotting). The format is cell-based. The note with it: for Dmax at 0.01 µM / Dmax at 0.1 µM / Dmax at 1 µM / Dmax at 10 µM / AR degradation (Western blotting, dose-dependent): LNCaP; for Dmax at 0.01 µM / Dmax at 0.1 µM / Dmax at 1 µM / Dmax at 10 µM / % AR protein degradation in LNCaP Cells: treatment time 6 h, average of three independent experiments; for Dmax at 0.1 µM / Dmax at 1 µM / Dmax at 10 µM: read-out: % AR protein degradation in LNCaP Cells. Here is the method:
Cell lines and Cell Culture: All the LNCaP, VCaP and 22RV1 cells used were purchased from American Type Culture Collection (ATCC). […] All of the cells were supplemented with 10% fetal bovine serum (Invitrogen) at 37° C. in a humidified 5% CO2 incubator.
Western Blotting. Treated cells were lysed by RIPA buffer supplemented with protease and phosphatase inhibitors. […] Software ImageJ was used to quantify the percentage of AR degradation. The net protein bands and loading controls are calculated by deducting the background from the inverted band value. The final relative quantification values are the ratio of net band to net loading control.
(Immunoblotting shows a protein as a band on a membrane.)

The structures appear in SMILES notation.

`Cc1cc([C@H](C(=O)N2C[C@H](O)C[C@H]2C(=O)N[C@@H](CC(=O)N2CCC(N3CCC(C#Cc4ccc(N5C(=S)N(c6cnc(C#N)c(C(F)(F)F)c6)C(=O)C56CCC6)cc4)CC3)CC2)c2ccc(-c3scnc3C)cc2)C(C)C)on1` [Compound 30, (2S,4R)—N—((S)-3-(4-((4-(7-(6-Cyano-5-(trifluoromethyl)pyridin-3-yl)-8-oxo-6-thioxo-5,7-diazaspiro[3.4]octan-5-yl)phenyl)ethynyl)-[1,4′-bipiperidin]-1′-yl)-1-(4-(4-methylthiazol-5-yl)phenyl)-3-oxopropyl)-4-hydroxy-1-((R)-3-methyl-2-(3-methylisoxazol-5-yl)butanoyl)pyrrolidine-2-carboxamide] registered a Dmax at 0.01 µM (0.01 μM) of 38%. For the same compound, the Dmax at 0.1 µM (0.1 μM) was determined as 80%. The Dmax at 1 µM (1 μM) came out at 95%.

`Cc1ncsc1-c1ccc(CNC(=O)C2C[C@@H](O)CN2C(=O)[C@@H](NC(=O)CCOCCOCCNC(=O)c2ccc(N3C(=S)N(c4ccc(C#N)c(C(F)(F)F)c4)C(=O)C3(C)C)cc2F)C(C)(C)C)cc1` (stereo partly drawn) [Compound 18, (4R)-1-((S)-13-(tert-Butyl)-1-(4-(3-(4-cyano-3-(trifluoromethyl)phenyl)-5,5-dimethyl-4-oxo-2-thioxoimidazolidin-1-yl)-2-fluorophenyl)-1,11-dioxo-5,8-dioxa-2,12-diazatetradecan-14-oyl)-4-hydroxy-N-(4-(4-methylthiazol-5-yl)benzyl)pyrrolidine-2-carboxamide]: where the note is “0.1 μM”, the Dmax at 0.1 µM was found to be 32%. The Dmax at 1 µM (1 μM) is 35%. Besides, the Dmax at 10 µM (10 μM) was determined as 40%.

As for `Cc1ncsc1-c1ccc([C@H](CC(=O)N2CCC(N3CCC(C#Cc4ccc(C(=O)N[C@H]5C(C)(C)[C@H](Oc6ccc(C#N)c(Cl)c6)C5(C)C)cc4)CC3)CC2)NC(=O)[C@@H]2C[C@@H](O)CN2C(=O)[C@@H](NC(=O)C2(C#N)CC2)C(C)(C)C)cc1` [Compound 35, (2S,4R)—N—((S)-3-(4-((4-(((1r,3r)-3-(3-Chloro-4-cyanophenoxy)-2,2,4,4-tetramethyl-cyclobutyl)carbamoyl)phenyl)ethynyl)-[1,4′-bipiperidin]-1′-yl)-1-(4-(4-methylthiazol-5-yl)phenyl)-3-oxopropyl)-1-((S)-2-(1-cyanocyclopropane-1-carboxamido)-3,3-dimethylbutanoyl)-4-hydroxypyrrolidine-2-carboxamide], the “% AR protein degradation in LNCaP Cells” value (0.01 μM) is recorded as 76%, the “% AR protein degradation in LNCaP Cells” value (0.1 μM) was 99% and the “% AR protein degradation in LNCaP Cells” value (1 μM) is recorded as 100%. In addition, the “AR degradation (Western blotting, dose-dependent)” value was “partial AR degradation” (at 10 nM); “essentially complete AR degradation” (at both 100 nM and 1 μM).

For `Cc1ncsc1-c1ccc(CNC(=O)C2C[C@@H](O)CN2C(=O)[C@@H](NC(=O)CCCCCCCCCCCNC(=O)c2ccc(N3C(=S)N(c4ccc(C#N)c(C(F)(F)F)c4)C(=O)C3(C)C)cc2F)C(C)(C)C)cc1` (stereo partly drawn) [Compound 17, (4R)-1-((S)-2-(12-(4-(3-(4-Cyano-3-(trifluoromethyl)phenyl)-5,5-dimethyl-4-oxo-2-thioxoimidazolidin-1-yl)-2-fluorobenzamido)dodecanamido)-3,3-dimethylbutanoyl)-4-hydroxy-N-(4-(4-methylthiazol-5-yl)benzyl)pyrrolidine-2-carboxamide], the Dmax at 0.1 µM (0.1 μM) is 30%. Besides, the Dmax at 1 µM (1 μM) worked out at 69%. Moreover, the Dmax at 10 µM (10 μM) came out at 75%.

In the case of `Cc1ncsc1-c1ccc([C@H](C)NC(=O)C2C[C@@H](O)CN2C(=O)[C@@H](NC(=O)CN2CCN(c3ccc(C#Cc4ccc(N5C(=S)N(c6ccc(C#N)c(C(F)(F)F)c6)C(=O)C5(C)C)cc4)cn3)CC2)C(C)(C)C)cc1` (stereo partly drawn) [Compound 24, (4R)-1-((S)-2-(2-(4-(5-((4-(3-(4-Cyano-3-(trifluoromethyl)phenyl)-5,5-dimethyl-4-oxo-2-thioxoimidazolidin-1-yl)phenyl)ethynyl)pyridin-2-yl)piperazin-1-yl)acetamido)-3,3-dimethylbutanoyl)-4-hydroxy-N—((S)-1-(4-(4-methylthiazol-5-yl)phenyl)ethyl)pyrrolidine-2-carboxamide], under “0.1 μM”, the Dmax at 0.1 µM was found to be 3%. Moreover, the Dmax at 1 µM (1 μM) was found to be 31%. The Dmax at 10 µM (10 μM) came out at 28%.

For the setting “0.01 μM”, `Cc1ncsc1-c1ccc([C@H](C)NC(=O)C2C[C@@H](O)CN2C(=O)[C@@H](NC(=O)CCN2CCN(c3ccc(C#Cc4ccc(N5C(=S)N(c6ccc(C#N)c(C(F)(F)F)c6)C(=O)C5(C)C)cc4)cn3)CC2)C(C)(C)C)cc1` (stereo partly drawn) [Compound 23, (4R)-1-((S)-2-(3-(4-(5-((4-(3-(4-Cyano-3-(trifluoromethyl)phenyl)-5,5-dimethyl-4-oxo-2-thioxoimidazolidin-1-yl)phenyl)ethynyl)pyridin-2-yl)piperazin-1-yl)propanamido)-3,3-dimethylbutanoyl)-4-hydroxy-N—((S)-1-(4-(4-methylthiazol-5-yl)phenyl)ethyl)pyrrolidine-2-carboxamide] registered a Dmax at 0.01 µM of 34%. The Dmax at 0.1 µM (0.1 μM) is 51%. Also, under “1 μM”, the Dmax at 1 µM came out at 78%.

Consider `Cc1cc([C@H](C(=O)N2C[C@H](O)C[C@H]2C(=O)N[C@@H](CC(=O)N2CCC(N3CCC(C#Cc4ccc(N5C(=S)N(c6ccc(C#N)c(C(F)(F)F)c6)C(=O)C5(C)C)cc4)CC3)CC2)c2ccc(-c3scnc3C)cc2)C(C)C)on1` [Compound 29, (2S,4R)—N—((S)-3-(4-((4-(3-(4-Cyano-3-(trifluoromethyl)phenyl)-5,5-dimethyl-4-oxo-2-thioxoimidazolidin-1-yl)phenyl)ethynyl)-[1,4′-bipiperidin]-1′-yl)-1-(4-(4-methylthiazol-5-yl)phenyl)-3-oxopropyl)-4-hydroxy-1-((R)-3-methyl-2-(3-methylisoxazol-5-yl)butanoyl)pyrrolidine-2-carboxamide], for which the Dmax at 0.01 µM (0.01 μM) is 20%. In addition, the Dmax at 0.1 µM (0.1 μM) is 81%. The Dmax at 1 µM (1 μM) was 97%.

The compound `Cc1ncsc1-c1ccc(CNC(=O)C2C[C@@H](O)CN2C(=O)[C@@H](NC(=O)CCCCCCCNC(=O)c2ccc(N3C(=S)N(c4ccc(C#N)c(C(F)(F)F)c4)C(=O)C3(C)C)cc2F)C(C)(C)C)cc1` (stereo partly drawn) [Compound 13, (4R)-1-((S)-2-(8-(4-(3-(4-Cyano-3-(trifluoromethyl)phenyl)-5,5-dimethyl-4-oxo-2-thioxoimidazolidin-1-yl)-2-fluorobenzamido)octanamido)-3,3-dimethylbutanoyl)-4-hydroxy-N-(4-(4-methylthiazol-5-yl)benzyl)pyrrolidine-2-carboxamide] had a Dmax at 0.01 µM (0.01 μM) of 8%. Besides, where the note is “0.1 μM”, the Dmax at 0.1 µM was determined as 29%. Where the note is “1 μM”, the Dmax at 1 µM is 65%.

On to `Cc1ncsc1-c1ccc([C@H](C)NC(=O)C2C[C@@H](O)CN2C(=O)[C@@H](NC(=O)N2CCN(c3ccc(C#Cc4ccc(N5C(=S)N(c6ccc(C#N)c(C(F)(F)F)c6)C(=O)C5(C)C)cc4)cn3)CC2)C(C)(C)C)cc1` (stereo partly drawn) [Compound 25, 4-(5-((4-(3-(4-Cyano-3-(trifluoromethyl)phenyl)-5,5-dimethyl-4-oxo-2-thioxoimid-azolidin-1-yl)phenyl)ethynyl)pyridin-2-yl)-N-((2S)-1-((4R)-4-hydroxy-2-(((S)-1-(4-(4-methylthiazol-5-yl)phenyl)ethyl)carbamoyl)pyrrolidin-1-yl)-3,3-dimethyl-1-oxobutan-2-yl)piperazine-1-carboxamide], for which the “% AR protein degradation in LNCaP Cells” value is, setting by setting: (0.1 μM) 0%; (1 μM) 12%; (10 μM) 0%.
